Laboratory results taken from patent US8993585B2, “Cyclic amine substituted pyrimidinediamines as PKC inhibitors” (Rigel Pharmaceuticals, Inc., priority 2007, dated 2015).

Tested on: Human primary T cells
Test: IL-2 ELISA, Human Primary T Cell, Anti-CD3+CD28+ (Example 3)
Assay type: cell-based
Details: anti-CD3+CD28 stimulation
In short: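 Human primary T cells, 100,000 per well, were pre-incubated with compound in Yssel's medium for 1 h at 37 °C. The counter-assay used 0.5 ng/ml PMA with 0.1 uM ionomycin final.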

Molecule: COC(=O)CCN1C(C)(C)CC(Nc2nc(Nc3ccc(OC)c(C(F)(F)F)c3)ncc2F)CC1(C)C [Compound I-295]
- IC50 (24 hours): 5100 nM

Molecule: CC(=O)Nc1ccc(Nc2ncc(F)c(NC3CC(C)(C)N(C)C(C)(C)C3)n2)cc1C(F)(F)F [Compound I-161]
- IC50 (24 hours): 1050 nM

Molecule: CN1C(C)(C)CC(Nc2nc(Nc3ccc4c(c3)OCc3nccn3-4)ncc2F)CC1(C)C [II-11]
- IC50 (Homo sapiens, T-cell, 24 h): 1320 nM

Molecule: CC1(C)CC(Nc2nc(Nc3cc(Cl)cc(Cl)c3)ncc2F)CC(C)(C)N1CCC(=O)O [Compound I-304]
- IC50 (Homo sapiens, T-cell, 24 h): 9510 nM

Molecule: CN1C(C)(C)CC(Nc2nc(Nc3cnc(N4CCOCC4)c(Cl)c3)ncc2F)CC1(C)C [Compound I-290]
- IC50 (24 hours): 596 nM

Molecule: CCN1C(=O)C(C)(C)Oc2cc(Nc3ncc(F)c(NC4CC(C)(C)N(C)C(C)(C)C4)n3)cnc21 [II-55]
- IC50 (Homo sapiens, T-cell, 24 h): 258 nM

Molecule: CN1C(C)(C)CC(Nc2nc(Nc3ccc(F)c(-n4cnnn4)c3)ncc2F)CC1(C)C [Compound I-466]
- IC50 (24 hours): 240 nM

Molecule: CCCN1C(=O)C2(CCC2)Oc2cc(Nc3ncc(F)c(NC4CC(C)(C)N(C)C(C)(C)C4)n3)ccc21 [II-166]
- IC50 (24 hours): 440 nM

Molecule: Cc1cc(Nc2ncc(F)c(NC3CC(C)(C)N(C)C(C)(C)C3)n2)ccc1Br [Compound I-111]
- IC50 (24 hours): 490 nM

Molecule: CN1C(C)(C)CC(Nc2nc(Nc3ccc(C#N)c(Cl)c3)ncc2C(F)(F)F)CC1(C)C [Compound I-33]
- IC50 (24 hours): 532 nM

Molecule: CN1C(C)(C)CC(N(Cc2ccc(-c3ccccc3C#N)cc2)c2nc(Nc3ccc4c(c3)OCCO4)ncc2F)CC1(C)C [II-91]
- IC50 (Homo sapiens, T-cell, 24 h): 3860 nM

Molecule: CC1(C)CC(Nc2nc(Nc3ccc4c(c3)OC3(CCCCC3)O4)ncc2F)CC(C)(C)N1 [II-121]
- IC50 (Homo sapiens, T-cell, 24 h): 1810 nM

Molecule: Cc1cnc(Nc2ccc(C#N)c(Cl)c2)nc1NC1CC(C)(C)N(C)C(C)(C)C1 [Compound I-28]
- IC50 (24 hours): 455 nM

Molecule: CN1C(C)(C)CC(Nc2nc(Nc3ccc(N4CCN(S(C)(=O)=O)CC4)c(Cl)c3)ncc2F)CC1(C)C [Compound I-61]
- IC50 (24 hours): 94 nM

Molecule: CN1C(C)(C)CC(Nc2nc(Nc3ccc4c(cnn4C)c3)ncc2F)CC1(C)C [II-39]
- IC50 (Homo sapiens, T-cell, 24 h): 967 nM

Molecule: COc1cc(O)cc(Nc2ncc(F)c(NC3CC(C)(C)N(C)C(C)(C)C3)n2)c1 [Compound I-436]
- IC50 (Homo sapiens, T-cell, 24 h): 600 nM

Molecule: CN1C(C)(C)CC(Nc2nc(Nc3ccc4cn[nH]c4c3)ncc2F)CC1(C)C [II-40]
- IC50 (24 hours): 2970 nM

Molecule: CN1C(C)(C)CC(Nc2nc(Nc3cccc(-c4ccncc4)c3)ncc2F)CC1(C)C [Compound I-79]
- IC50 (24 hours): 552 nM

Molecule: CN1CCN(S(=O)(=O)c2ccc(Nc3ncc(F)c(NC4CC(C)(C)N(C)C(C)(C)C4)n3)cc2Cl)CC1 [Compound I-45]
- IC50 (24 hours): 2370 nM

Molecule: COC(=O)N1CCN(c2cc(Nc3ncc(F)c(NC4CC(C)(C)N(C)C(C)(C)C4)n3)ccc2Cl)CC1 [Compound I-43]
- IC50 (24 hours): 890 nM

Molecule: Cc1cnc(Nc2ccc(N3CCN(C)CC3)c(Cl)c2)nc1NC1CC(C)(C)N(C)C(C)(C)C1 [Compound I-29]
- IC50 (24 hours): 463 nM

Molecule: COc1ccc(Nc2ncc(F)c(NC3CC(C)(C)N(C)C(C)(C)C3)n2)cc1-c1ccoc1 [Compound I-183]
- IC50 (24 hours): 901 nM

Molecule: CC(=O)N1C(C)(C)CC(Nc2nc(Nc3ccc(N4CCN(S(C)(=O)=O)CC4)c(C(F)(F)F)c3)ncc2F)CC1(C)C [Compound I-215]
- IC50 (24 hours): 25500 nM

Molecule: COc1cccc(Nc2ncc(F)c(NC3CCC(C)(C)N(C)C(C)(C)C3)n2)c1 (stereo not shown) [Compound I-269, 5-Fluoro-N2-[3-methoxy]phenyl-N4-(1,2,2,7,7-pentamethylazepan-4-yl)-2,4-pyrimidinediamine]
- IC50 (24 hours): 8200 nM

Molecule: CN1CCN(c2ccc(Nc3ncc(F)c(N(C)C4CC(C)(C)N(C)C(C)(C)C4)n3)cc2C(F)(F)F)CC1 [Compound I-59]
- IC50 (24 hours): 911 nM

Molecule: COc1cc(Nc2ncc(F)c(NC3CCC(C)(C)N(C)C(C)(C)C3)n2)cc(OC)c1OC (stereo not shown) [Compound I-266, 5-Fluoro-N2-[3,4,5-trimethoxy]phenyl-N4-(1,2,2,7,7-pentamethylazepan-4-yl)-2,4-pyrimidinediamine]
- IC50 (24 hours): 11200 nM

Molecule: Cc1nnnn1-c1cccc(Nc2ncc(C#N)c(NC3CC(C)(C)N(C)C(C)(C)C3)n2)c1 [Compound I-462]
- IC50 (24 hours): 270 nM

Molecule: CN1C(C)(C)CC(Nc2nc(Nc3ccc4c(c3)OC(C)(C)C(=O)N4CCF)ncc2C#N)CC1(C)C [II-79]
- IC50 (Homo sapiens, T-cell, 24 h): 152 nM

Molecule: COc1ccc(Nc2ncc(F)c(NC3CC(C)(C)N(C)C3(C)C)n2)cc1OC (stereo not shown) [Compound I-281, 5-Fluoro-N2-(3,4-dimethoxy)phenyl-N4-(1,2,2,5,5-pentamethylpyrrolidin-3-yl)-2,4-pyrimidinediamine]
- IC50 (24 hours): 17100 nM

Molecule: CC1(C)CC(Nc2nc(Nc3ccc4c(c3)OC(C)(C)O4)ncc2F)CC(C)(C)N1 [II-102]
- IC50 (Homo sapiens, T-cell, 24 h): 5220 nM

Molecule: COc1cc(Nc2ncc(F)c(NC3CCN(Cc4ccncc4)CC3)n2)cc(-n2nnnc2C)c1 [III-10, 5-fluoro-N2-[3-methoxy-5-(5-methyl-1H-tetrazol-1-yl)]phenyl-N4-[1-(pyridin-4-yl)methylpiperidin-4-yl]-2,4-pyrimidinediamine]
- IC50 (24 hours): 2220 nM

Molecule: COc1ccc(Nc2ncc(F)c(N(Cc3ccc4ccccc4c3)C3CC(C)(C)N(C)C(C)(C)C3)n2)cc1OC(F)F [Compound I-316]
- IC50 (Homo sapiens, T-cell, 24 h): 3440 nM

Molecule: COc1cc(Nc2ncc(F)c(N(Cc3ccc4ccccc4c3)C3CC(C)(C)N(C)C(C)(C)C3)n2)cc(OC)c1 [Compound I-314]
- IC50 (Homo sapiens, T-cell, 24 h): 2570 nM

Molecule: CC(C)Oc1ccc(Nc2ncc(F)c(NC3CC(C)(C)N(C)C(C)(C)C3)n2)cc1Cl [Compound I-346]
- IC50 (24 hours): 248 nM

Molecule: COc1c(C)cc(Nc2ncc(F)c(NC3CC(C)(C)N(C)C(C)(C)C3)n2)cc1C [Compound I-131]
- IC50 (24 hours): 629 nM

Molecule: CCOc1ccc2nc(Nc3ncc(F)c(NC4CC(C)(C)N(C)C(C)(C)C4)n3)sc2c1 [II-18]
- IC50 (Homo sapiens, T-cell, 24 h): 2120 nM

Molecule: COc1cc(Nc2ncc(F)c(NC3CC(C)(C)N(C)C(C)(C)C3)n2)ccc1-n1cccc1 [Compound I-349]
- IC50 (24 hours): 1040 nM

Molecule: CN1C(C)(C)CC(Nc2nc(Nc3ccc(OC(F)(F)F)c(Cl)c3)ncc2F)CC1(C)C [Compound I-334]
- IC50 (24 hours): 1010 nM

Molecule: COc1ccc(Nc2ncc(F)c(NC3CC(C)(C)N(C)C(C)(C)C3)n2)cc1OCc1ccncc1 [Compound I-417]
- IC50 (24 hours): 2670 nM

Molecule: COc1ccc(Nc2ncc(F)c(N(Cc3ccccc3)C3CC(C)(C)N(C)C(C)(C)C3)n2)cc1OC(F)F [Compound I-309]
- IC50 (Homo sapiens, T-cell, 24 h): 642 nM

Molecule: COc1ccc(Nc2ncc(F)c(NC3CCC(C)(C)N(C)C(C)(C)C3)n2)cc1OC (stereo not shown) [Compound I-267, 5-Fluoro-N2-[3,4-dimethoxy]phenyl-N4-(1,2,2,7,7-pentamethylazepan-4-yl)-2,4-pyrimidinediamine]
- IC50 (24 hours): 11700 nM

Molecule: CN1C(C)(C)CC(Nc2nc(Nc3cccc(C#N)c3)ncc2[N+](=O)[O-])CC1(C)C [Compound I-72]
- IC50 (24 hours): 992 nM

Molecule: CC(C)N1C(=O)C(C)(C)Oc2cc(Nc3ncc(C#N)c(NC4CC(C)(C)N(C)C(C)(C)C4)n3)ccc21 [II-74]
- IC50 (Homo sapiens, T-cell, 24 h): 349 nM

Molecule: CN1C(C)(C)CC(Nc2nc(Nc3ccc4c(c3)OC3(CCCC3)O4)ncc2F)CC1(C)C [II-113]
- IC50 (Homo sapiens, T-cell, 24 h): 2170 nM

Molecule: CN1C(C)(C)CC(N(Cc2cc3c(cc2Br)OCO3)c2nc(Nc3ccc4c(c3)OCCO4)ncc2F)CC1(C)C [II-90]
- IC50 (Homo sapiens, T-cell, 24 h): 5580 nM

Molecule: CN1C(C)(C)CC(Nc2nc(Nc3ccc(N4CCN(S(C)(=O)=O)CC4)c(C(F)(F)F)c3)ncc2C(F)(F)F)CC1(C)C [Compound I-88]
- IC50 (24 hours): 287 nM

Molecule: CN1C(C)(C)CCC(Nc2nc(Nc3cc(Cl)cc(Cl)c3)ncc2F)CC1(C)C (stereo not shown) [Compound I-265, 5-Fluoro-N2-[3,5-dichloro]phenyl-N4-(1,2,2,7,7-pentamethylazepan-4-yl)-2,4-pyrimidinediamine]
- IC50 (24 hours): 4320 nM

Molecule: CCN1C(=O)C2(CCC2)Oc2cc(Nc3ncc(F)c(NC4CC(C)(C)N(C)C(C)(C)C4)n3)ccc21 [II-69]
- IC50 (24 hours): 164 nM

Molecule: COc1cc(Nc2ncc(C#N)c(NC3CC(C)(C)NC(C)(C)C3)n2)cc(-n2cnnn2)c1 [Compound I-403]
- IC50 (24 hours): 500 nM

Molecule: Cc1cc(C)cc(Nc2ncc(C)c(NC3CC(C)(C)N(C)C(C)(C)C3)n2)c1 [Compound I-17]
- IC50 (24 hours): 963 nM

Molecule: CN1C(C)(C)CC(Nc2nc(Nc3ccc4c(c3)oc(=O)n4CCN3CCOCC3)ncc2C#N)CC1(C)C [II-169]
- IC50 (Homo sapiens, T-cell, 24 h): 3500 nM

Molecule: Cc1ccc(C)n1-c1cc(Nc2ncc(F)c(NC3CC(C)(C)N(C)C(C)(C)C3)n2)ccc1OCCN1CCOCC1 [Compound I-439]
- IC50 (Homo sapiens, T-cell, 24 h): 620 nM

Molecule: CN1C(C)(C)CC(Nc2nc(Nc3ccc4c(c3)C(=O)NC4=O)ncc2F)CC1(C)C [II-148]
- IC50 (Homo sapiens, T-cell, 24 h): 990 nM

Molecule: CCNC(=O)Nc1ccc(Nc2ncc(F)c(NC3CC(C)(C)N(C)C(C)(C)C3)n2)cc1 [Compound I-149]
- IC50 (24 hours): 4360 nM

Molecule: COC(=O)N1CCN(c2ccc(Nc3ncc(F)c(NC4CC(C)(C)N(C)C(C)(C)C4)n3)cc2Cl)CC1 [Compound I-62]
- IC50 (24 hours): 257 nM

Molecule: CN1C(C)(C)CC(Nc2nc(Nc3ccc(F)c(-c4ccoc4)c3)ncc2F)CC1(C)C [Compound I-192]
- IC50 (24 hours): 941 nM

Molecule: 5-Fluoro-N2-(4-methyl-cyano)phenyl-N4-(1,2,2,5,5-pentamethylpyrrolidin-3-yl)-2,4-pyrimidinediamine [Compound I-278]
- IC50 (24 hours): 1280 nM

Molecule: CC(C)N1C(=O)C(C)(C)Oc2cc(Nc3ncc(F)c(NC4CC(C)(C)N(C)C(C)(C)C4)n3)ccc21 [II-44]
- IC50 (Homo sapiens, T-cell, 24 h): 298 nM

Molecule: COc1ccc(Nc2ncc(F)c(NC3CC(C)(C)N(C)C(C)(C)C3)n2)cn1 [Compound I-345]
- IC50 (Homo sapiens, T-cell, 24 h): 5320 nM

Molecule: COc1ccc(Nc2ncc(F)c(NC3CC(C)(C)N(C)C(C)(C)C3)n2)cc1OC [Compound I-130]
- IC50 (24 hours): 1100 nM

Molecule: CCN1C(=O)C(C)(C)Oc2cc(Nc3ncc(C#N)c(NC4CC(C)(C)NC(C)(C)C4)n3)ccc21 [II-57]
- IC50 (Homo sapiens, T-cell, 24 h): 147 nM
